Measured values reported in patent publication EP2687213B1, “Solid forms comprising (+)-2-[1-(3-ethoxy-4-methoxyphenyl)-2-methylsulfonylethyl]-4-acetylaminoisoindoline-1,3-dione, compositions thereof, and uses thereof” (CELGENE CORPORATION, priority 2008, dated 2009).
“Also recorded” adds a separate entry of the source.

Experiments:
[1] = Hygroscopicity studies (DVS moisture sorption/desorption); format: physicochemical; conditions: for solid-state transformation after full adsorption/desorption cycle (XRPD): DVS, 0% to 95% RH and back; for mass change of the starting mass of the sample: RH increased from about 0% to about 95% RH, about 25 °C; for hygroscopicity: moisture sorption analysis, 0% to 95% RH
Experimental: Hygroscopicity studies. The hygroscopicity of various solid forms was studied using a Surface Measurement Systems DVS instrument. Typically a sample size of between about 10-50 mg was loaded into the DVS instrument sample pan and the sample was analyzed on a DVS automated sorption analyzer at about 25 °C. The relative humidity was increased in increments of about 10% from about 0% to about 95% RH. The relative humidity was then decreased in a similar manner to accomplish a full adsorption/desorption cycle. The mass was recorded at periodic intervals throughout the experiment.

[2] = Solid form stability studies (XRPD); format: physicochemical
Experimental: Stability Studies. The stabilities of Forms A, B, C and D were studied by exposing the solid samples to the stress condition of 40 °C / 75% RH for four weeks. Moreover, the stabilities of Forms A, B, C and D in different solvents were studied by equilibration in different solvents at 40 °C for four weeks. The slurries then were filtered and dried in the air. Solid samples obtained from the stability experiments were analyzed by XRPD and DSC.

[3] = Compression studies (2000 psi, XRPD); conditions: 2000 psi for at least one minute
[4] = Solid form interconversion studies (slurry, XRPD); format: physicochemical; conditions: EQ in acetone:ethanol (1:1) at 25 °C, at least 2 days
Experimental: Interconversion Studies. Interconversion experiments were performed by making slurries of a solid form in a saturated solvent. The slurries were agitated for at least 2 days at about 25 °C. The saturated solution was removed by filtration and the solid was dried in the air.

[5] = EQ in ethanol at 40 °C for 4 weeks
[6] = EQ in heptane at 40 °C for 4 weeks
[7] = EQ in toluene at 40 °C for 4 weeks
[8] = EQ in water at 40 °C for 4 weeks

SMILES | solid-state transformation after full adsorption/desorption cycle (XRPD) [1] | mass change of the starting mass of the sample [1] | hygroscopicity [1] | Analysis by XRPD (resulting form) ([2]; 40 °C / 75% RH, 4 weeks) | Analysis by XRPD (resulting form) [2, 5] | Analysis by XRPD (resulting form) [2, 6] | Analysis by XRPD (resulting form) [2, 7] | Analysis by XRPD (resulting form) [2, 8] | physical stability upon compression (XRPD) [3] | Analysis by XRPD (resulting form) [4]
CCOc1cc(C(CS(C)(=O)=O)N2C(=O)c3cccc(NC(C)=O)c3C2=O)ccc1OC (single isomer, unassigned; (+)) [Form B, (+)-2-[1-(3-ethoxy-4-methoxyphenyl)-2-methylsulfonylethyl]-4-acetylaminoisoindoline-1,3-dione] | none of the forms analyzed underwent substantial solid-state transformation | about 0.6% | substantially nonhygroscopic | stable | stable | stable | converts to Form C | stable | substantially physically stable | –
CCOc1cc(C(CS(C)(=O)=O)N2C(=O)c3cccc(NC(C)=O)c3C2=O)ccc1OC (single isomer, unassigned; (+)) [Form D, (+)-2-[1-(3-ethoxy-4-methoxyphenyl)-2-methylsulfonylethyl]-4-acetylaminoisoindoline-1,3-dione] | none of the forms analyzed underwent substantial solid-state transformation | about 1.5% | slightly hygroscopic | stable | converts to Form B | converts to Form B | converts to Form C | converts to Form B | substantially physically stable | Form B
CCOc1cc(C(CS(C)(=O)=O)N2C(=O)c3cccc(NC(C)=O)c3C2=O)ccc1OC (single isomer, unassigned; (+)) [Form E, (+)-2-[1-(3-ethoxy-4-methoxyphenyl)-2-methylsulfonylethyl]-4-acetylaminoisoindoline-1,3-dione] | none of the forms analyzed underwent substantial solid-state transformation | about 5.1% | hygroscopic | – | – | – | – | – | – | Form B
CCOc1cc(C(CS(C)(=O)=O)N2C(=O)c3cccc(NC(C)=O)c3C2=O)ccc1OC (single isomer, unassigned; (+)) [Form G, (+)-2-[1-(3-ethoxy-4-methoxyphenyl)-2-methylsulfonylethyl]-4-acetylaminoisoindoline-1,3-dione] | none of the forms analyzed underwent substantial solid-state transformation | about 0.4% | substantially nonhygroscopic | – | – | – | – | – | – | converts to Form B
CCOc1cc(C(CS(C)(=O)=O)N2C(=O)c3cccc(NC(C)=O)c3C2=O)ccc1OC (single isomer, unassigned; (+)) [Form F, (+)-2-[1-(3-ethoxy-4-methoxyphenyl)-2-methylsulfonylethyl]-4-acetylaminoisoindoline-1,3-dione] | none of the forms analyzed underwent substantial solid-state transformation | about 0.2% | substantially nonhygroscopic | – | – | – | – | – | – | stable; also recorded: Form F
